Results on 1 molecule are retold here after US20230241000A1, “GSK3 INHIBITOR-LOADED NANO FORMULATIONS AS A CANCER IMMUNOTHERAPEUTIC” (The Regents of the University of California, priority 2020, published 2023).

Data set [1] relates to Tbx21 expression. Put plainly: RT-qPCR of Tbx21 in anti-CD3 activated primary murine T-cells. Format: cell-based, C57BL/6 mouse. To be noted: 10 μM, 72 hours, normalized against Gapdh. Here is the method: This is compatible with the translational expression of T-bet, a transcription factor that interferes in PD-1 expression (FIG. 1, panel B).
Wells of a 96-well tissue culture plate were coated with anti-mouse CD3 antibody (Ultra-LEAF, Biolegend). 7.5 μL of 1 mg/mL antibody solution was diluted in 1 mL of 1×PBS, before 50 μL of the dilution was added to each plate well for 2 hours at 37° C. The wells were then thoroughly washed 3× with 1×PBS.
T-cells were extracted from C57BL/6 mouse spleens, using a standard procedure with minor modifications (71). Two mouse spleens were mechanically disrupted and the released cells were passed through a 70 μm filter. Red blood cells were lysed using RBC lysis buffer (eBioscience) at 4° C. for 5 minutes. 10 mL of 1×PBS was added to stop the lysis process, following which cells were pelleted at 300×g for 5 minutes. […]
Cells were collected and RNA was extracted using Direct-zol RNA MiniPrep Plus kits (Zymo), as per the manufacturer's instructions. Extracted RNA was converted into cDNA using SuperScript III First-Strand Synthesis System kits (Invitrogen). cDNA from treated T-cells was analyzed by RT-PCR using a LightCycler 480 instrument (Roche) and the LightCycler 480 SYBR Green I Master kit (Roche), per manufacturer's instructions. cDNA was analyzed using forward and reverse primers for Pdcd1, Tbx21, and Gapdh as a control, as described previously (10, 14). […]

A short description of data set [2]: Maximum tolerated dose study of free AZD1080. Format: in vivo. To be noted: one-time tail vein injection, 5 to 25.3 mg/kg, weights recorded 14 days; listed as free AZD1080. Here is the method: Dotted lines represent thresholds for toxicity (−15%) and weight loss requiring euthanasia (20%). Body weight changes are relative to individual mouse initial weights. N=4 mice per group, error bars are SEM.
In order to establish a safe working concentration for murine experiments on AZD1080, we used a previously established dose of 5 mg/kg for the treatment of an Alzheimer's-like disease process in rats (29) for planning of a maximum tolerated dose assessment (FIG. 14). […] This prompted us to continue the use of the established dose of 5 mg/kg, for a total of three injections in our animal studies.
The maximum tolerated dose of AZD1080 was determined using a protocol from the National Cancer Institute (72). C57BL/6 mice were injected with AZD1080 solutions via tail vein (100 μL) and weights were recorded daily for 14 days. AZD1080 was solubilized in 30% PEG400, 0.5% Tween-80, 5% polyethylene, and 64.5% 1×PBS. The injected amounts of AZD1080 were 5, 7.5, 11.25, 16.87, or 25.31 mg/kg per mouse, n=4 mice per group.

The test system of data set [3] is MC38 colon cancer. Put plainly: MC38 syngeneic colon cancer model, subcutaneous tumor growth. Format: in vivo, C57BL/6 mice. The method, then: Treatment was repeated every three days for a total of three administrations. Mice were sacrificed four days after the final treatment. The study was executed as two separate experiments, using animal group sizes of n=6 and n=9, respectively. […] The first set of analyses was performed on the tumor volume growth curves (FIG. 5, panel A), impact on final tumor volumes (FIG. 5, panel B) and tumor weight (FIG. 5, panel C) at the time of sacrifice.
MC38 cells, stably transfected with a luciferase vector, were inoculated into the right flank of C57BL/6 mice, using 0.7×10^6 cells in 40% Matrigel 1×PBS solution. Tumors were allowed to grow to a size of ˜50 mm^3 prior to the initiation of treatment, approximately 14 days after initial inoculation. Mice with outlier tumor sizes (either too small or too large) were excluded from further study. The remaining animals were randomly assigned to the different treatment groups. Mice were treated with three injections, set three days apart, and were sacrificed 4 days after the final treatment administration. […] Two separate experiments were performed, the first with n=6 mice per group and the second with n=9 animals.

The nature of data set [4]: Safety analysis in MC38 mice (animal weight, blood chemistry, organ H&E histology). Particulars: serum at sacrifice. Format: in vivo, C57BL/6 mice. Here is the method: While there is sparse literature on the use of AZD1080 in animal studies, this agent had to be discontinued in a phase I clinical trial in humans due to nephrotoxicity (15).
The histology preparation and staining of tumor tissue and mouse organs was performed in the Pathology Core Facility of the UCLA Jonsson Comprehensive Cancer Center. Tissues were fixed in 10% neutral-buffered formalin for 24 hours, then gradually dehydrated in 25-75% ethanol solutions over 3 days. Tissues were embedded in paraffin, sectioned at 4 μm thickness, and stained by anti-CD8, anti-cleaved caspase 3, anti-perforin, anti-PD-1, or haemotoxylin and eosin (H&E). Slides were digitally scanned for analysis using Aperio ImageScope software (Leica Biosystems, Buffalo Grove, Ill.). Four fields of view were analyzed per tumor at 20× magnification, with all positively stained cells counted within the field and averaged across fields. The investigator was blinded with respect to the animal groups to avoid bias during counting. Fields of view were chosen to avoid the tumor periphery and processing artifacts.
At the time of sacrifice, blood was obtained by cardiac puncture from MC38 tumor growing animals and collected into Greiner Bio-One MiniCollect Capillary Blood collection system tubes. Tubes were centrifuged as per manufacturer's instructions to separate serum from blood cells. The serum was frozen at […] and subsequently used, to obtain a comprehensive serum chemistry panel, develop by IDEXX Laboratories (Westbrook, Me.), for use in the UCLA Division of Laboratory Animal Medicine (DLAM).

The test system of data set [5] is GSK3. To be noted: values provided by chemical vendors (Cayman Chemical, Selleck Chemicals); cited from earlier work.

`N#Cc1ccc2[nH]c(O)c(-c3ccc(CN4CCOCC4)cn3)c2c1` [AZD1080]: the “Tbx21 mRNA expression” value in data set [1] is “increased”. Also, the “tolerability on dose escalation (weight loss, behavior, mortality, adverse events)” value in data set [2] is “devoid of significant weight loss, abnormal behavior or posture, mortality or other adverse events”. Further, in data set [3] (MC38, three administrations, n=15 per group), the “number of tumor-free animals at time of sacrifice (out of 15)” value is given as 3/15. In data set [3] (three administrations every three days, sAZD1080 5 mg/kg IV, free AZD1080 5 mg/kg IP, SB415286 8 mg/kg IP, anti-PD-1 4 mg/kg IP, n=15), the “tumor growth inhibition in MC38 (significance vs saline)” value is given as “no significant effect on tumor growth inhibition”. Further, in data set [4], the “albumin:globulin ratio” value is recorded as “depress”; the “blood chemistry panel (overall)” value is recorded as “more variation in blood chemistry”; the “total bilirubin and BUN levels” value is listed as “reductions”. Also, the half-maximal inhibitory concentration (IC50) in data set [5] is 31 nM.
